# Structures can show the parent of a compound that is named as a salt.
# Key:
# [1] = Water solubility test in distilled water
# Experimental: 5 mg mangiferin powder which is weighed up accurately is put into 50 ml distilled water, the solution is shaked acutely 30 second every 5 minutes.
# 100 mg mangiferin calcium powder which is obtained by the method for preparation of example 8 and weighed up accurately is put into 50 ml distilled water, the solution is shaked acutely 30 second every 5 minutes.
# [2] = Pharmacokinetics of mangiferin and mangiferin calcium after oral administration; type: in vivo, rats; conditions: rat, in vivo, po, 100 mg/kg
# Experimental: 1, The Confect of Drug Solution
# Mangiferin is suspended in Carboxymethyl cellulose sodium solution which concentration is one percent; the mangiferin concentration is 10 mg/mL, which is sample A.
# All rats were fasted for 16 hours, free drinking water. The rats are oral administrated separately sample A and sample B, which dose is 100 mg/kg. The rats were taken whole blood in 5 minutes before oral administrated and 15 min, 30 min, 45 min, 60 min, 90 min, 120 min, 180 min, 240 min, 300 min, 360 min, 480 min after oral administrated. Serum is separated from these blood samples.
# Serum Samples are extracted accurately 0.2 ml into centrifuge tubes separately; then 40 μL cold trichloroacetic acid solution which concentration is ten percent is added into centrifuge tubes separately. The samples are whorled 3 minutes; then centrifuged 12000 r/min for 10 minutes, 120 μl the up layer solution are extracted from centrifuge tubes and put into sample bottles separately. All the samples are detected by HPLC.
# Apparatus: Angilent 1100 HPLC (American Agilent Co.), include G1312A dual pump G1313A Auto-Sampler.
# Chromatographic column: discover ODS column (250 mm×6 mm, 5 μm);
# The mobile phase: Acetonitrile—0.1% H3PO4 water (13:87 v/v)
# Velocity of flow: 1.0 ml/min
# Detection Wavelength: 254 nm.
# Column temperature: 30° C.
# [3] = tested on: STZ rats; assay: Efficacy in STZ model (plasma glucose, insulin, lipids, glucose clamp); type: in vivo, wistar rats; conditions: for Glucose infusion rate: glucose clamp; for FFA / GLU / INS / TG: high fat chow
# Experimental: Rosiglitazone Hydrochloride tablets were purchased from Zhejiang wanma pharmaceutical Co., Ltd. Mangiferin and mangiferin calcium salts were suspended with 3% sodium carboxymethyl cellulose.
# Normal female wistar rats (SPF, 3 months age, 180-200 g) were purchased from Hainan provincial peoples hospital experimental Animal Center. The animals were kept in a room temperature (25˜28° C.) with free access of food and water. A light-dark cycle (6 a.m and 6 p.m) was strictly enforced. High fat chow is composed of 55% basic chow, 2% protein, 16% fat, 27% white sugar.
# Model: After the rats were fasted for 12 hours, the rats are injected 30-35 mg/kg streptozotocin (STZ) solution once by tail vein. STZ solution is prepared to 2% concentration with […], pH 4.4 citrate-sodium citrate buffer before use. The model rats were weighed, taked out tail vein blood, tested blood glucose when the Model is done after 14 days after fasting for 12 hours, then injected 20% glucose solution ([…]) by intraperitoneal, determined blood glucose in 0.5 h, 1 h, 2 h. The rats whose glucose tolerance is abnormal were brought into experiments. Normal wistar rats were fed normal chow, model rats were fed high fat chow.
# Experimental group:normal wistar rats group (n=10); after Diabetes model is succeed, the rats were randomly divided into 7 groups: Diabetes model group (n=10); mangiferin groups (20, 40, 80 mg/kg, each 10 rats); mangiferin calcium groups (10, 20, 40 mg/kg, each 10 rats); Rosiglitazone Hydrochloride group [3 mg/kg, n=10]. Test samples or vehicle control was given orally for 8 weeks. Diabetes model group and normal group were given vehicle.
# Determination of insulin sensitivity (Glucose infusion rate): Using glucose clamp technique, in accordance with Konglingdong'method ? KONG Ling-dong, ZHU Liang-zheng, SONG Ju-min, etc al. Intervention Effects of Tiaozhi Jiangtang Tablet on Insulin Resistance in Rats with Diabetes Mellitus Type 2.
# Determination of plasma glucose and lipid: Rats were taken whole blood after killed, then serum was separated, determined plasma glucose (GLU), insulin (INS), triglycerides (TG) and free fatty acids (FFA).
# GLU and TG levels were determined using GF-D800 semi-auto chemist which was purchased from Shandong Gaomi Caihong Analytical Instrument Co., Ltd. Free fatty acids were determined using copper colorimetric determination. The kits for Determination of free fatty acids were purchased from Nanjing Jiancheng Bioengineering Institute. Insulin: radioimmunoassay (RIA), γ counter counts. insulin RIA Kit was purchased from Shandong Weifang City three-dimensional (3V) Biological company.
# Statistics: The results have been calculated as mean±SD ( x±SD) and compareisons of the data have been done by t-test.
# [4] = tested on: GK rats; assay: Efficacy in GK model (plasma glucose, insulin, lipids); type: in vivo, Goto-Kakizaki rats (GK)
# Experimental: Rosiglitazone Hydrochloride tablets were purchased from Zhejiang wanma pharmaceutical Co., Ltd. Mangiferin and mangiferin calcium were suspended with 3% sodium carboxymethyl cellulose before use.
# Goto-Kakizaki rats (GK) (16 weeks age, ♀ ♂) were purchased from Shanghai SLAC laboratory animal Co., Ltd. The animals were kept in IVC cages with temperature (22° C.). There are two rats in each cage.
# Experimental group: GK rats group (n=10); mangiferin groups (20, 40, 80 mg/kg, each 10 rats); mangiferin calcium groups (10, 20, 40 mg/kg, each 10 rats); Rosiglitazone Hydrochloride group [3 mg/kg, n=10]. Test samples or vehicle control was given orally for 30 days. GK rats group were given vehicle.
# The blood specimens were taken by abdominal aorta at the end of the test. Plasma glucose (GLU), insulin (INS), triglycerides (TG), total cholesterol (TC), high density lipoprotein (HDL), low density lipoprotein (LDL) were determined
# GLU, TC, TG, HDL and LDL levels were determined using GF-D800 semi-auto chemist which was purchased from Shandong Gaomi Caihong Analytical Instrument Co., Ltd. Insulin: radioimmunoassay (RIA), γ counter counts. insulin RIA Kit was purchased from Shandong Weifang City three-dimensional (3V) Biological company.
# Statistics: The results have been calculated as mean±SD ( x±SD) and comparisons of the data have been done by t-test.
smiles,measurement,setting,value
O=c1c2cc(O)c(O)cc2oc2cc(O)c(C3OC(CO)C(O)C(O)C3O)c(O)c12 (stereo not shown) [Mangiferin],dissolves in 30 minutes,[1]; 5 mg powder in 50 ml distilled water,can't be dissolved
same,solubility at 30 min,"[1]; water, thermodynamic from solid",< 100 µg/mL
same,AUC(0-inf),[2],31100 ng·h/mL
same,Cmax,[2],14800 ± 500 ng/mL
same,T1/2β,[2],45.7 ± 8.3 min
same,"improvement of GLU, TG, FFA, INS, Glucose infusion rate in diabetic rats",[3]; 20 mg/kg orally for 8 weeks,does not significantly improve
same,Glucose infusion rate,[3]; 20 mg/kg orally for 8 weeks,15.75 ± 3.69 mg/kg · min
same,Glucose infusion rate,[3]; 40 mg/kg orally for 8 weeks,18.32 ± 3.89 mg/kg · min
same,Glucose infusion rate,[3]; 80 mg/kg orally for 8 weeks,23.65 ± 3.67 mg/kg · min
same,FFA,[3]; 20 mg/kg orally for 8 weeks,1.79 ± 0.24 µmol/L
same,GLU,[3]; 20 mg/kg orally for 8 weeks,10.56 ± 0.38 mmol/L
same,INS,[3]; 20 mg/kg orally for 8 weeks,33.42 ± 3.79 μ IU/ml
same,TG,[3]; 20 mg/kg orally for 8 weeks,3.42 ± 0.41 mmol/L
same,FFA,[3]; 40 mg/kg orally for 8 weeks,1.56 ± 0.19 µmol/L
same,GLU,[3]; 40 mg/kg orally for 8 weeks,8.45 ± 0.23 mmol/L
same,INS,[3]; 40 mg/kg orally for 8 weeks,28.13 ± 3.74 μ IU/ml
same,TG,[3]; 40 mg/kg orally for 8 weeks,2.82 ± 0.22 mmol/L
same,FFA,[3]; 80 mg/kg orally for 8 weeks,1.29 ± 0.34 µmol/L
same,GLU,[3]; 80 mg/kg orally for 8 weeks,7.05 ± 0.44 mmol/L
same,INS,[3]; 80 mg/kg orally for 8 weeks,24.35 ± 3.46 μ IU/ml
same,TG,[3]; 80 mg/kg orally for 8 weeks,1.82 ± 0.32 mmol/L
same,GLU,[4]; 20 mg/kg orally for 30 days,19.65 ± 5.07 mmol/L
same,HDL,[4]; 20 mg/kg orally for 30 days,0.68 ± 0.12 mmol/L
same,INS,[4]; 20 mg/kg orally for 30 days,26.94 ± 4.89 μ IU/ml
same,LDL,[4]; 20 mg/kg orally for 30 days,1.56 ± 0.26 mmol/L
same,TC,[4]; 20 mg/kg orally for 30 days,2.54 ± 0.28 mmol/L
same,TG,[4]; 20 mg/kg orally for 30 days,1.69 ± 0.31 mmol/L
same,"improvement of GLU, TC, TG, HDL and LDL and INS in diabetic GK rats",[4]; 20 mg/kg orally for 30 days,does not significantly improve
same,GLU,[4]; 40 mg/kg orally for 30 days,20.33 ± 4.09 mmol/L
same,HDL,[4]; 40 mg/kg orally for 30 days,0.75 ± 0.13 mmol/L
same,INS,[4]; 40 mg/kg orally for 30 days,24.44 ± 1.91 μ IU/ml
same,LDL,[4]; 40 mg/kg orally for 30 days,1.33 ± 0.41 mmol/L
same,TC,[4]; 40 mg/kg orally for 30 days,2.50 ± 0.45 mmol/L
same,TG,[4]; 40 mg/kg orally for 30 days,1.61 ± 0.22 mmol/L
same,"improvement of TG, HDL and LDL in diabetic GK rats",[4]; 40 mg/kg orally for 30 days,improves
same,GLU,[4]; 80 mg/kg orally for 30 days,20.57 ± 4.13 mmol/L
same,HDL,[4]; 80 mg/kg orally for 30 days,0.78 ± 0.11 mmol/L
same,INS,[4]; 80 mg/kg orally for 30 days,16.68 ± 1.76 μ IU/ml
same,LDL,[4]; 80 mg/kg orally for 30 days,1.30 ± 0.38 mmol/L
same,TC,[4]; 80 mg/kg orally for 30 days,2.45 ± 0.31 mmol/L
same,TG,[4]; 80 mg/kg orally for 30 days,1.59 ± 0.16 mmol/L
"CN(CCOc1ccc(CC2SC(=O)NC2=O)cc1)c1ccccn1 (stereo not shown) [Rosiglitazone, Rosiglitazone Hydrochloride]",Glucose infusion rate,[3]; 3 mg/kg orally for 8 weeks,24.75 ± 3.69 mg/kg · min
same,FFA,[3]; 3 mg/kg orally for 8 weeks,1.25 ± 0.13 µmol/L
same,GLU,[3]; 3 mg/kg orally for 8 weeks,7.49 ± 2.18 mmol/L
same,INS,[3]; 3 mg/kg orally for 8 weeks,19.87 ± 4.21 μ IU/ml
same,TG,[3]; 3 mg/kg orally for 8 weeks,1.44 ± 0.16 mmol/L
same,GLU,[4]; 3 mg/kg orally for 30 days,24.38 ± 2.26 mmol/L
same,HDL,[4]; 3 mg/kg orally for 30 days,0.78 ± 0.07 mmol/L
same,INS,[4]; 3 mg/kg orally for 30 days,17.58 ± 9.80 μ IU/ml
same,LDL,[4]; 3 mg/kg orally for 30 days,1.37 ± 0.19 mmol/L
same,TC,[4]; 3 mg/kg orally for 30 days,2.40 ± 0.17 mmol/L
same,TG,[4]; 3 mg/kg orally for 30 days,1.48 ± 0.12 mmol/L
